Laboratory results as given in US7537906B2, “Apoptosis inducer and method of screening for a substance inhibiting acylated homoserine lactone” (priority 2003, dated 2009).

Tested on: CaCo-2 cells
Test: Effects of kinase inhibitors on N-(3-oxododecanoyl)-L-homoserine lactone-dependent apoptosis, viability by Trypan blue staining
Format: cell-based, human
Details: then 30 μM N-(3-oxododecanoyl)-L-homoserine lactone, 12 hours
Procedure: 2×10^5 CaCo-2 cells were inoculated per 3.5 cm dish, cultured for 12 hours in the presence of 10% serum, washed twice with PBS (-), and then synchronously cultured in a serum-free medium for 24 hours. Pretreatment with various inhibitors (50 μM PD98059 and 20 μM SB203580) or DMSO was carried out for 30 minutes. Then 30 μM N-(3-oxododecanoyl)-L-homoserine lactone or DMSO was added, the cells were cultured for 12 hours, and then viability was measured by Trypan blue staining.

Structure (SMILES) | effect of pretreatment on viability (50 μM pretreatment 30 minutes) | viability at 20 µM (Homo sapiens, 20 μM pretreatment 30 minutes)
COc1cccc(-c2cc(=O)c3ccccc3o2)c1N [PD98059] | no effect | –
C[S+]([O-])c1ccc(-c2nc(-c3ccncc3)c(-c3ccc(F)cc3)[nH]2)cc1 (centres unmarked) [SB203580] | – | 35%
